In the CheMixHub ionic liquid set:

Assay: xn = mol fraction of the nth substance listed
Settings: for viscosity: x2 = 0

[Cl][Al]([Cl])[Cl] + CC[n+]1ccn(C)c1.[Cl-]
101 kPa
Settings	electrical conductivity [S/m]
263 K, frequency 0.1 MHz, x1 = 0.5455	0.14
263 K, frequency 0.1 MHz, x1 = 0.5652	0.13
263 K, frequency 0.1 MHz, x1 = 0.5833	0.57
263 K, frequency 0.1 MHz, x1 = 0.6	0.36
263 K, frequency 0.1 MHz, x1 = 0.6296	0.35
273 K, frequency 0.1 MHz, x1 = 0.5455	0.59
273 K, frequency 0.1 MHz, x1 = 0.5652	0.92
273 K, frequency 0.1 MHz, x1 = 0.5833	0.84
273 K, frequency 0.1 MHz, x1 = 0.6	0.53
273 K, frequency 0.1 MHz, x1 = 0.6296	0.52
283 K, frequency 0.1 MHz, x1 = 0.5238	1.24
283 K, frequency 0.1 MHz, x1 = 0.5455	1.34
283 K, frequency 0.1 MHz, x1 = 0.5652	1.33
283 K, frequency 0.1 MHz, x1 = 0.5833	1.13
283 K, frequency 0.1 MHz, x1 = 0.6	0.73
283 K, frequency 0.1 MHz, x1 = 0.6296	0.73
293 K, frequency 0.1 MHz, x1 = 0.5238	1.58
293 K, frequency 0.1 MHz, x1 = 0.5455	1.81
293 K, frequency 0.1 MHz, x1 = 0.5652	1.73
293 K, frequency 0.1 MHz, x1 = 0.6	0.96
293 K, frequency 0.1 MHz, x1 = 0.6296	0.99
303 K, frequency 0.1 MHz, x1 = 0.5238	2.05
303 K, frequency 0.1 MHz, x1 = 0.5455	2.47
303 K, frequency 0.1 MHz, x1 = 0.5652	2.3
303 K, frequency 0.1 MHz, x1 = 0.5833	1.89
303 K, frequency 0.1 MHz, x1 = 0.6	1.25
303 K, frequency 0.1 MHz, x1 = 0.6296	1.29
303.15 K, frequency 0 MHz, x1 = 0.6	1.92
303.15 K, frequency 0 MHz, x1 = 0.63	1.8
303.15 K, frequency 0 MHz, x1 = 0.67	1.64
306.15 K, frequency 1 MHz, x2 = 0.556	1.46
306.15 K, frequency 1 MHz, x2 = 0.67	0.409
313 K, frequency 0.1 MHz, x1 = 0.5238	2.58
313 K, frequency 0.1 MHz, x1 = 0.5652	2.95
313 K, frequency 0.1 MHz, x1 = 0.5833	2.34
313 K, frequency 0.1 MHz, x1 = 0.6	1.64
313 K, frequency 0.1 MHz, x1 = 0.6296	1.52
323 K, frequency 0.1 MHz, x1 = 0.5238	3.35
323 K, frequency 0.1 MHz, x1 = 0.5455	3.65
323 K, frequency 0.1 MHz, x1 = 0.5652	3.37
323 K, frequency 0.1 MHz, x1 = 0.5833	2.85
323 K, frequency 0.1 MHz, x1 = 0.6	2.18
323 K, frequency 0.1 MHz, x1 = 0.6296	1.83
333 K, frequency 0.1 MHz, x1 = 0.5238	4.09
333 K, frequency 0.1 MHz, x1 = 0.5455	3.96
333 K, frequency 0.1 MHz, x1 = 0.5652	4.11
333 K, frequency 0.1 MHz, x1 = 0.5833	3.04
333 K, frequency 0.1 MHz, x1 = 0.6	2.4
333 K, frequency 0.1 MHz, x1 = 0.6296	2.16
342.1 K, frequency 0.1 MHz, x1 = 0.5238	5.15
343 K, frequency 0.1 MHz, x1 = 0.5455	4.63
343 K, frequency 0.1 MHz, x1 = 0.5652	4.72
343 K, frequency 0.1 MHz, x1 = 0.5833	3.21
343 K, frequency 0.1 MHz, x1 = 0.6	2.82
343 K, frequency 0.1 MHz, x1 = 0.6296	2.49
352.1 K, frequency 0.1 MHz, x1 = 0.5238	6.3
353 K, frequency 0.1 MHz, x1 = 0.5652	5.34
353 K, frequency 0.1 MHz, x1 = 0.5833	4.2
353 K, frequency 0.1 MHz, x1 = 0.6	3.2
353 K, frequency 0.1 MHz, x1 = 0.6296	2.95
362.1 K, frequency 0.1 MHz, x1 = 0.6	3.69
363 K, frequency 0.1 MHz, x1 = 0.5238	6.4
363 K, frequency 0.1 MHz, x1 = 0.5455	5.69
363 K, frequency 0.1 MHz, x1 = 0.5652	5.87
363 K, frequency 0.1 MHz, x1 = 0.5833	4.33
363 K, frequency 0.1 MHz, x1 = 0.6296	3.3

101.3 kPa
Settings	electrical conductivity [S/m]
270.1 K, x2 = 0.3333	0.533
270.4 K, x2 = 0.4348	0.75
270.6 K, x2 = 0.5556	0.36
271.1 K, x2 = 0.3636	0.6
271.1 K, x2 = 0.4	0.702
275.6 K, x2 = 0.4	0.822
275.6 K, x2 = 0.5263	0.832
275.6 K, x2 = 0.5556	0.471
276.1 K, x2 = 0.3333	0.711
276.1 K, x2 = 0.4348	0.901
277.1 K, x2 = 0.3636	0.798
280.6 K, x2 = 0.4348	1.01
281.1 K, x2 = 0.3636	0.946
281.1 K, x2 = 0.4	1.06
281.1 K, x2 = 0.4762	1.18
281.1 K, x2 = 0.5	1.28
281.1 K, x2 = 0.5263	1.03
281.1 K, x2 = 0.5556	0.595
282.1 K, x2 = 0.3333	0.896
288.15 K, x2 = 0.4348	1.34
290.15 K, x2 = 0.3636	1.33
290.15 K, x2 = 0.4762	1.59
290.65 K, x2 = 0.4	1.4
290.65 K, x2 = 0.5263	1.4
290.65 K, x2 = 0.5556	0.87
291.15 K, x2 = 0.5	1.83
292.15 K, x2 = 0.3333	1.23
303.15 K, x2 = 0.3333	1.65
303.15 K, x2 = 0.3636	1.82
303.15 K, x2 = 0.5263	1.93
303.15 K, x2 = 0.5556	1.33
304.15 K, x2 = 0.4762	2.42
304.15 K, x2 = 0.5	2.57
305.15 K, x2 = 0.4	2.03
305.15 K, x2 = 0.4348	2.24
309.15 K, x2 = 0.5556	1.57
312.65 K, x2 = 0.5263	2.46
314.15 K, x2 = 0.4348	2.69
314.65 K, x2 = 0.4	2.48
315.65 K, x2 = 0.3636	2.3
316.15 K, x2 = 0.3333	2.12
317.65 K, x2 = 0.4762	3.2
317.65 K, x2 = 0.5	3.3
320.15 K, x2 = 0.5556	2.21
321.15 K, x2 = 0.5263	3.01
323.15 K, x2 = 0.3333	2.46
323.15 K, x2 = 0.3636	2.64
323.15 K, x2 = 0.4	2.92
324.15 K, x2 = 0.4348	3.2
324.15 K, x2 = 0.4762	3.63
324.15 K, x2 = 0.5	3.79
330.15 K, x2 = 0.5556	2.71
331.15 K, x2 = 0.4	3.4
331.15 K, x2 = 0.5263	3.65
332.15 K, x2 = 0.4348	3.7
332.15 K, x2 = 0.4762	4.14
332.65 K, x2 = 0.5	4.37
333.15 K, x2 = 0.3333	2.93
334.15 K, x2 = 0.3636	3.18
341.15 K, x2 = 0.4348	4.28
342.15 K, x2 = 0.4	4.02
342.15 K, x2 = 0.4762	4.9
342.15 K, x2 = 0.5	5.03
342.15 K, x2 = 0.5263	4.39
343.15 K, x2 = 0.3333	3.38
343.15 K, x2 = 0.3636	3.64
344.15 K, x2 = 0.5556	3.63
350.65 K, x2 = 0.4	4.54
351.15 K, x2 = 0.4348	4.88
352.15 K, x2 = 0.5263	5.04
353.15 K, x2 = 0.3333	3.88
353.15 K, x2 = 0.3636	4.2
353.15 K, x2 = 0.4762	5.63
353.15 K, x2 = 0.5	5.79
353.15 K, x2 = 0.5556	4.27
361.15 K, x2 = 0.4	5.18
361.15 K, x2 = 0.4348	5.54
361.15 K, x2 = 0.4762	6.35
361.15 K, x2 = 0.5	6.43
363.15 K, x2 = 0.3333	4.45
363.15 K, x2 = 0.3636	4.8
363.15 K, x2 = 0.5263	5.91
364.15 K, x2 = 0.5556	5.09
370.15 K, x2 = 0.3333	4.82
370.15 K, x2 = 0.3636	5.19
371.15 K, x2 = 0.4	5.84
371.15 K, x2 = 0.4348	6.23
371.15 K, x2 = 0.4762	7.02
371.15 K, x2 = 0.5	7.19
372.15 K, x2 = 0.5263	6.56
374.15 K, x2 = 0.5556	5.89

CC(C)O + CC[n+]1ccn(CCOC)c1.N#C[S-]
100 kPa
Settings	viscosity [mPa·s]
288.15 K	2.83
293.15 K	2.42
298.15 K	2.07
303.15 K	1.79
308.15 K	1.552
313.15 K	1.352
318.15 K	1.183

CCCCO + CC[n+]1ccn(CCOC)c1.N#C[S-]
100 kPa
Settings	viscosity [mPa·s]
288.15 K	3.36
293.15 K	2.94
298.15 K	2.58
303.15 K	2.27
308.15 K	2.01
313.15 K	1.78
318.15 K	1.585

CC(C)O + CC[n+]1ccn(CCOC)c1.O=S(=O)([O-])C(F)(F)F
101 kPa
Settings	viscosity [mPa·s]
288.15 K	2.806
293.15 K	2.397
298.15 K	2.059
303.15 K	1.777
308.15 K	1.542
313.15 K	1.344
318.15 K	1.176
